Measured values from US10251909B2 (Board of Regents, the University of Texas System, priority 2007, dated 2019).
Read-outs that look alike come from different tables or passages of the source.

How the values were obtained:
[1] = Tolerability of KMgCitrate; format: in vivo; details: usual dosage about 40 mEq potassium, 20 mEq magnesium, 60 mEq citrate
[2] = cited from earlier work
[3] = cited from earlier work; remark: listed apart in the source
[4] = cited from earlier work; remark: listed apart in the source
[5] = cited from earlier work; remark: listed apart in the source
[6] = Insulin responsiveness by hyperinsulinemic euglycemic pump procedure, two subjects with uric acid stones (Example 2); format: in vivo, Human; details: 49 mEq K, 24.5 mEq Mg per day for 4 weeks
Protocol: In two subjects with uric acid stones, insulin responsiveness was determined before and after KMgCitrate treatment (49 mEq K, 24.5 mEq Mg per day for 4 weeks) by a hyperinsulinemic euglycemic pump procedure. During intravenous infusion of insulin, glucose was infused at a rate sufficient to maintain a constant glucose concentration. Insulin responsiveness was determined from the glucose disposal rate.

[7] = Blood pressure during 5 months of KMgCitrate or potassium chloride with hydrochlorothiazide, 21 normal subjects (Example 1); format: in vivo, Human; details: for fall in diastolic blood pressure (supine) / fall in systolic blood pressure (supine): 42 mEq K per day with hydrochlorothiazide 50 mg/day, monthly for 5 months versus baseline, normal subjects; for effect on blood pressure: normal subjects given hydrochlorothiazide concurrently for 5 months, as early as one month and as long as 5 months
Excerpt: FIG. 2 graphically illustrates the effect of KMgCitrate (K4MgCit2) on blood pressure in 21 normal subjects. Changes in systolic and diastolic blood pressures from baseline (before treatment) occurring during 5 months of treatment with potassium chloride (KCl) or KMgCitrate with hydrochlorothiazide are shown individually. * p<0.05 from time zero, ** p<0.01.
In the recently published study by Odvina et al. (Am J Therap 13: 101-108, 2006) that examined the value of KMgCitrate in the prevention of thiazide-induced hypomagnesemia, the unpublished data on blood pressure were extracted. Twenty-one normal subjects participated in the trial. All were started on hydrochorothiazide 50 mg/day. Ten subjects took simultaneously KMgCitrate at a dose of 42 mEq K and […] per day, while 11 subjects received potassium chloride (42 mEq/day). Supine blood pressures were taken before and each month for 5 months. FIG. 3 compares the systolic and diastolic blood pressures between the two groups.

[8] = Odvina, 42 mEq K qd; cited from earlier work
[9] = in vivo; cited from earlier work
[10] = both groups, before potassium supplementation; cited from earlier work
[11] = thirty subjects with hypomagnesemia on thiazide alone; cited from earlier work
[12] = 49 mEq K, 24.5 mEq Mg/day for 3 weeks while continuing hydrochlorothiazide 50 mg/day
[13] = during therapy versus control phase, constant metabolic diet
[14] = during therapy, constant metabolic diet

SMILES: O=C([O-])CC(O)(CC(=O)[O-])C(=O)[O-].O=C([O-])CC(O)(CC(=O)[O-])C(=O)[O-].[K+].[K+].[K+].[K+].[Mg+2] [KMgCitrate, tetrapotassium monomagnesium dicitrate]
- tolerability / side effect profile [1]: well tolerated, with a low side effect profile
- relative risk of treatment failure compared with placebo ([2]; 42 mEq K, 21 mEq Mg/day for up to 3 years): 0.16 (95% confidence interval of 0.05-0.46)
- patients in whom new calculi formed ([2]; 42 mEq K, 21 mEq Mg/day for up to 3 years, placebo 63.6%): 12.6%
- stone formation rate ([2]; randomized trial, patients with calcium oxalate nephrolithiasis): dramatically reduced
- peak excretion rate of urinary potassium ([3]; single oral load (KMgCitrate 49 mEq potassium, 24.5 mEq magnesium, 73.5 mEq citrate), timed urine 24 hours, 15 normal volunteers): comparable to that of potassium citrate and potassium chloride
- peak excretion rate and peak time of urinary magnesium ([3]; single oral load, 24.5-25 mEq magnesium, 15 normal volunteers): comparable between KMgCitrate and magnesium citrate
- cumulative increment in urinary magnesium ([3]; single oral load, 24.5-25 mEq magnesium, potassium citrate as control): equivalent between KMgCitrate and magnesium citrate
- peak time (time to reach peak excretion rate) of urinary potassium ([3]; single oral load, 49-50 mEq potassium, 15 normal volunteers): about 4 hours
- serum potassium concentration [4, 12]: increased significantly
- serum potassium determinations reaching normal limits [4, 12]: 81.7%
- Increment in Urinary Magnesium ([4]; Ruml, 49 mEq K qd): 38 mg/day
- Increment in Urinary Potassium ([4]; Ruml, 49 mEq K qd): 33 mEq/day
- Increment in Urinary Magnesium ([5]; Pak, 49 mEq K qd): 44 mg/day
- Increment in Urinary Potassium ([5]; Pak, 49 mEq K qd): 51 mEq/day
- alkali load ([5]; at the same dose of potassium, versus potassium citrate): greater alkali load than potassium citrate
- urinary pH [5, 13]: rose from the control phase
- urinary potassium [5, 13]: rose from the control phase
- inhibitor activity of brushite [5, 14]: increased
- inhibitor activity of calcium oxalate [5, 14]: increased
- urinary saturation of calcium oxalate (activity product) [5, 14]: reduced
- urinary saturation of uric acid (content of undissociated uric acid) [5, 14]: reduced
- glucose disposal rate after treatment, second patient ([6]; 2.2 mg/m^2/min before treatment): 2.8 mg/m^2/min
- glucose disposal rate after treatment, first patient ([6]; 3.2 mg/m^2/min before treatment): 4.3 mg/m^2/min
- insulin responsiveness ([6]; hyperinsulinemic euglycemic pump): improved insulin responsiveness
- fall in diastolic blood pressure (supine) [7]: significant only in the KMgCitrate group
- fall in systolic blood pressure (supine) [7]: significant only in the KMgCitrate group
- effect on blood pressure [7]: significant reduction
- Increment in Urinary Magnesium [8]: 57 to 63 mg/day
- Increment in Urinary Potassium [8]: 30–50 mEq/day

SMILES: O=C([O-])CC(O)(CC(=O)[O-])C(=O)[O-].[K+].[K+].[K+] [Potassium citrate, potassium citrate, reference compound]
- urinary citrate [5, 13]: did not raise pH or citrate as much
- urinary pH [5, 13]: did not raise pH or citrate as much
- urinary magnesium excretion [5, 14]: did not augment

SMILES: [Cl-].[K+] [potassium chloride, reference compound]
- fall in diastolic blood pressure (supine) [7]: trend for systolic and diastolic blood pressures to decrease
- fall in systolic blood pressure (supine) [7]: trend for systolic and diastolic blood pressures to decrease
- effect on blood pressure [7]: no statistically significant effect
- urinary calcium [9]: has no effect

SMILES: NS(=O)(=O)c1cc2c(cc1Cl)NCNS2(=O)=O [thiazide, hydrochlorothiazide]
- serum potassium concentration on thiazide alone [10]: decreased significantly
- serum magnesium concentration during thiazide alone versus before treatment [11]: significantly lower
- serum potassium concentration on thiazide alone ([4]; hydrochlorothiazide 50 mg/day for 3 weeks, normal subjects): decreased significantly to below the normal range in most subjects
